From patent publication US20080119530A1, “Method for treatment and prevention of ultraviolet light induced skin pathologies” (priority 2006, published 2008)

Tests used:
[1] = system: skin; assay: TUNEL analysis of apoptotic basal cells in UV-exposed skin; design: species or system mouse; details: 24 h after UV, in vivo
Protocol: Microscopy. Hematoxylin and eosin staining was performed on paraffin-embedded sections following standard protocols. Following antigen retrieval, paraffin-embedded sections were incubated with antibodies to keratin 1, keratin 6, filaggrin (all from Covance, Princeton, N.J.), or […] (R&D Systems, Minneapolis, Minn.), Alexa Fluor 488-conjugated secondary antibody (Molecular Probes), and 4′,6-diamidino-2-phenylindole (DAPI; Vector Laboratories, Burlingame, Calif.). Apoptotic cells were identified using terminal deoxynucleotidyl transferase-mediated dUTP nick end labeling (TUNEL; Promega, Madison, Wis.).
Therefore, the effect of inhibition of Erbb2 on apoptotic cell death was examined in vivo by TUNEL. The percentage of TUNEL-positive basal cells peaked at 18% in vehicle-treated skin at 24 h after UV.
It has been discovered that Erbb2 modulates the expression of genes important in both proliferation and apoptosis following UV exposure in vivo (Example 9). Accordingly, the influence of Erbb2 on both apoptosis and cell proliferation was assessed in order to determine the mechanisms of Erbb2's effect on hyperplasia in the skin after UV irradiation. Erbb2 suppresses UV-induced apoptosis in vitro, although the effect was slight (32). […]

[2] = system: primary keratinocytes; assay: BrdU incorporation (DNA synthesis) in cultured primary keratinocytes; assay type: cell-based, mouse
From the text: Cell culture. […] Keratinocytes were transfected with Erbb2-targeted siRNA (32), Stealth RNAi Negative Control LO GC (Invitrogen, Carlsbad, Calif.), Cy3-conjugated Label IT RNAi Delivery Control (Mirus, Madison, Wis.) or sham transfection with TransIT-siQUEST Transfection Reagent (Mirus, Madison, Wis.). Plasmids with Cdc25a (Hassepass et al. 2003a) and EGFP (enhanced green fluorescent protein) cDNA were cotransfected with Lipofectamine Transfection Reagent (Invitrogen, Carlsbad, Calif.). Transfection efficiency was quantified by determining the proportion of the cells that incorporated the fluorescent Cy3-conjugated siRNA or GFP one day post-transfection. […]
Cell cycle. […] For in vitro analysis, keratinocytes were resuspended, fixed in 70% ethanol, resuspended in Vindelov's solution (3.5 mM Tris base, pH 7.6, 10 mM NaCl, 10 μg/ml Ribonuclease A, 75 μg/ml propidium iodide, 1.01l/ml IPEGAL), and analyzed on a FACSCalibur flow cytometer (Becton Dickinson, Franklin Lakes, N.J.). Cell cycle distributions were determined using ModFit LT 3.1 software (Verity Software House, Topsham, Me.). […]
Proliferation and apoptosis assays. Proliferation, survival and apoptosis were quantified in three replicate experiments. BrdU uptake was measured by a chemiluminescenit BrdU Cell Proliferation ELISA (Roche, Germany). […] MUH fluorescence from wells lacking cells was subtracted from all samples. […]

Question: `COc1cc(/C=C(\C#N)C(N)=O)cc(CSc2nc3ccccc3s2)c1O` [AG825] was tested. Which “apoptotic cell death (TUNEL-positive basal cells)” value [1] did it give?
Answer: The value was “did not increase”.

Question: What about the BrdU incorporation ([2]; by 12 h after UV irradiation) of the same compound?
Answer: The BrdU incorporation was “reduced to nearly zero”.

Question: And the BrdU incorporation ([2]; sham-irradiated keratinocytes)?
Answer: Its BrdU incorporation is “significantly reduced”.
